In ChEMBL document CHEMBL1151588, “1,2-diaminobenzimidazoles : Selective inhibitors of nitric oxide synthase derived from aminoguanidine” (Bioorg Med Chem Lett, 1995) one finds IC50 data, which are given here for four compounds.

Experiment [1] has as its target T1, Nitric oxide synthase, inducible (Homo sapiens, UniProt P35228). Put plainly: Tested to inhibit the conversion of [3H]-L-arginine to [3H]L-citrulline catalyzed by inducible NOS from human DLD-1 cells at concentration below 100 uM; No significant inhibition. Type of experiment: cell-based.
In experiment [2] the target is T2, Nitric oxide synthase 3 (Homo sapiens, UniProt P29474).
T2 sequence (P29474 whole entry): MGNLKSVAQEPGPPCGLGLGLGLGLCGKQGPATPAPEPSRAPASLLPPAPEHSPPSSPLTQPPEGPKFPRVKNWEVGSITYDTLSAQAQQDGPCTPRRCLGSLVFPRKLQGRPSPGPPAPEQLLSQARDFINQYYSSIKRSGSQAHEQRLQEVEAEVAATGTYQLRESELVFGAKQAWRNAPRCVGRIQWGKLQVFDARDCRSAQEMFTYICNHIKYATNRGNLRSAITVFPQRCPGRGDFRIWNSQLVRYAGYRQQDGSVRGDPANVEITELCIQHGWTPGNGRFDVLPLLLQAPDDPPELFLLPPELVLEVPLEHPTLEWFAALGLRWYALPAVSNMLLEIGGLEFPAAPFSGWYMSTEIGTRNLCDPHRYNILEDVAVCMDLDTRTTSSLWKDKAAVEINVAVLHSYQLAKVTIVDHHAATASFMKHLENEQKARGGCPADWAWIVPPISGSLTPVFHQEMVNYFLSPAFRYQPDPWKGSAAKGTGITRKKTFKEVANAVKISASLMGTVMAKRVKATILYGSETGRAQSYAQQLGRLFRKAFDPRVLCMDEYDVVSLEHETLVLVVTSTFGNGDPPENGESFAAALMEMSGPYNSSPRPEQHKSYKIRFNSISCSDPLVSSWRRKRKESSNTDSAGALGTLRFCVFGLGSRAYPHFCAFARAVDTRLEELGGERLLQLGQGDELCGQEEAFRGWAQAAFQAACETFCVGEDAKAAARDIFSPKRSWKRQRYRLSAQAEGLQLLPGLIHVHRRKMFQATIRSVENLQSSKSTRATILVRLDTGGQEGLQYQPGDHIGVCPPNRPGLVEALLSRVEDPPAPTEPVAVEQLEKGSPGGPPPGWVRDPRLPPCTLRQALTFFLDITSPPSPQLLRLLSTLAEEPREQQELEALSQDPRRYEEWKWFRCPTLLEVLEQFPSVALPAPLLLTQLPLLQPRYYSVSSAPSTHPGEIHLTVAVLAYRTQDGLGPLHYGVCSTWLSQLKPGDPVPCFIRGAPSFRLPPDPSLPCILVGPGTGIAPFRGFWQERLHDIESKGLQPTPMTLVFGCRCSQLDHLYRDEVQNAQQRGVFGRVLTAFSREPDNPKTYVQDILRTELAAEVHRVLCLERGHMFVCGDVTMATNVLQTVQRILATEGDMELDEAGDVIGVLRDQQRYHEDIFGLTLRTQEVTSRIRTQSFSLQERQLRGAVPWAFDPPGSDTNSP
Briefly: Tested to inhibit the conversion of [3H]L-arginine to [3H]L-citrulline catalyzed by endothelial NOS from human umbilical vein endothelial cells; No significant inhibition. Format: cell-based. Conditions: endothelial cell; call rule not given here.

For experiment [3], the target named is T3, Nitric oxide synthase, inducible (Mus musculus, UniProt P29477).
T3 sequence (P29477 whole entry): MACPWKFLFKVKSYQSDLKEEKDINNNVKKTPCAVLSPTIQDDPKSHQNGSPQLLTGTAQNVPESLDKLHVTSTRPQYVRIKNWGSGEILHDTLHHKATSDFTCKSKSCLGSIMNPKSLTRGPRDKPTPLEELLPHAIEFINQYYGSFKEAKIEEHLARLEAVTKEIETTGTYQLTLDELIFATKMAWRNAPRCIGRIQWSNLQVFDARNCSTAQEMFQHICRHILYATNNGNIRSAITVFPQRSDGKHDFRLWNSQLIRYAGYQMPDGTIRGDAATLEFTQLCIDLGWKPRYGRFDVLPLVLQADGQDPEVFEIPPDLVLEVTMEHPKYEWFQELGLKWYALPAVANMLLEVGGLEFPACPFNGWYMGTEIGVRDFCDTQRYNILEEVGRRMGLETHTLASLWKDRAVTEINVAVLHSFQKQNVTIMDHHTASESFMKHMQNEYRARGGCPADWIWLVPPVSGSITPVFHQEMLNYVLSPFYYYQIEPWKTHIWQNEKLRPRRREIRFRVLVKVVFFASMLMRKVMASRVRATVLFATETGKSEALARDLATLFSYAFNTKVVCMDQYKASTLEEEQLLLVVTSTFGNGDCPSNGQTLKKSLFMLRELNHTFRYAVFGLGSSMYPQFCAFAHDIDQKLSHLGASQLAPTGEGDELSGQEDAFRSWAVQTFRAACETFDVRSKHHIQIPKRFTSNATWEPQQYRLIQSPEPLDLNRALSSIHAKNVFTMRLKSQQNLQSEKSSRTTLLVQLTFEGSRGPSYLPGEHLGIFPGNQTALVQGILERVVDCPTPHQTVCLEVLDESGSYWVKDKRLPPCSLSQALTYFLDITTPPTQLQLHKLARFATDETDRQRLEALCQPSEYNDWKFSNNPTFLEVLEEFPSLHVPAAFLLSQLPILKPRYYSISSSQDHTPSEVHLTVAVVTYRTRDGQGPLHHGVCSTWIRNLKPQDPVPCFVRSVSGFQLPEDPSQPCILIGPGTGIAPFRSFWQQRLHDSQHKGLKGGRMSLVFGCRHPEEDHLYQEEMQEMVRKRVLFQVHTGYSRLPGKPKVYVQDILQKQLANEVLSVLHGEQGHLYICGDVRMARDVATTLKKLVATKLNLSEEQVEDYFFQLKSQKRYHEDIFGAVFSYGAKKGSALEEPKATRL
Put plainly: Tested to inhibit the conversion of [3H]L-arginine to [3H]L-citrulline catalyzed by inducible NOS from mouse macrophage J774 cells at concentration below 100 uM; No significant inhibition. Format: cell-based.

The target in experiment [4] is T4, Nitric oxide synthase 1 (Rattus norvegicus, UniProt P29476). Put plainly: Tested to inhibit the conversion of [3H]L-arginine to [3H]L-citrulline catalyzed by neuronal NOS from rat cerebellum. Type of experiment: tissue-based.
In experiment [5] the target is T1, Nitric oxide synthase, inducible. Briefly: Tested to inhibit the conversion of [3H]L-arginine to [3H]L-citrulline catalyzed by inducible NOS from human DLD-1 cells. Type of experiment: cell-based.
Experiment [6] concerns the target T2, Nitric oxide synthase 3. Briefly: Tested to inhibit the conversion of [3H]L-arginine to [3H]L-citrulline catalyzed by endothelial NOS from human umbilical vein endothelial cells at concentration below 100 uM; No significant inhibition. Format: cell-based. The note with it: endothelial cell.
The target of experiment [7] is T3, Nitric oxide synthase, inducible. Put plainly: Tested to inhibit the conversion of [3H]L-arginine to [3H]L-citrulline catalyzed by inducible NOS from mouse macrophage J774 cells. Format: cell-based.
The target in experiment [8] is T4, Nitric oxide synthase 1. Briefly: Tested to inhibit the conversion of [3H]L-arginine to [3H]L-citrulline catalyzed by neuronal NOS from rat cerebellum at concentration below 100 uM; No significant inhibition.

Molecules are shown by their SMILES.

T4 sequence (P29476 whole entry): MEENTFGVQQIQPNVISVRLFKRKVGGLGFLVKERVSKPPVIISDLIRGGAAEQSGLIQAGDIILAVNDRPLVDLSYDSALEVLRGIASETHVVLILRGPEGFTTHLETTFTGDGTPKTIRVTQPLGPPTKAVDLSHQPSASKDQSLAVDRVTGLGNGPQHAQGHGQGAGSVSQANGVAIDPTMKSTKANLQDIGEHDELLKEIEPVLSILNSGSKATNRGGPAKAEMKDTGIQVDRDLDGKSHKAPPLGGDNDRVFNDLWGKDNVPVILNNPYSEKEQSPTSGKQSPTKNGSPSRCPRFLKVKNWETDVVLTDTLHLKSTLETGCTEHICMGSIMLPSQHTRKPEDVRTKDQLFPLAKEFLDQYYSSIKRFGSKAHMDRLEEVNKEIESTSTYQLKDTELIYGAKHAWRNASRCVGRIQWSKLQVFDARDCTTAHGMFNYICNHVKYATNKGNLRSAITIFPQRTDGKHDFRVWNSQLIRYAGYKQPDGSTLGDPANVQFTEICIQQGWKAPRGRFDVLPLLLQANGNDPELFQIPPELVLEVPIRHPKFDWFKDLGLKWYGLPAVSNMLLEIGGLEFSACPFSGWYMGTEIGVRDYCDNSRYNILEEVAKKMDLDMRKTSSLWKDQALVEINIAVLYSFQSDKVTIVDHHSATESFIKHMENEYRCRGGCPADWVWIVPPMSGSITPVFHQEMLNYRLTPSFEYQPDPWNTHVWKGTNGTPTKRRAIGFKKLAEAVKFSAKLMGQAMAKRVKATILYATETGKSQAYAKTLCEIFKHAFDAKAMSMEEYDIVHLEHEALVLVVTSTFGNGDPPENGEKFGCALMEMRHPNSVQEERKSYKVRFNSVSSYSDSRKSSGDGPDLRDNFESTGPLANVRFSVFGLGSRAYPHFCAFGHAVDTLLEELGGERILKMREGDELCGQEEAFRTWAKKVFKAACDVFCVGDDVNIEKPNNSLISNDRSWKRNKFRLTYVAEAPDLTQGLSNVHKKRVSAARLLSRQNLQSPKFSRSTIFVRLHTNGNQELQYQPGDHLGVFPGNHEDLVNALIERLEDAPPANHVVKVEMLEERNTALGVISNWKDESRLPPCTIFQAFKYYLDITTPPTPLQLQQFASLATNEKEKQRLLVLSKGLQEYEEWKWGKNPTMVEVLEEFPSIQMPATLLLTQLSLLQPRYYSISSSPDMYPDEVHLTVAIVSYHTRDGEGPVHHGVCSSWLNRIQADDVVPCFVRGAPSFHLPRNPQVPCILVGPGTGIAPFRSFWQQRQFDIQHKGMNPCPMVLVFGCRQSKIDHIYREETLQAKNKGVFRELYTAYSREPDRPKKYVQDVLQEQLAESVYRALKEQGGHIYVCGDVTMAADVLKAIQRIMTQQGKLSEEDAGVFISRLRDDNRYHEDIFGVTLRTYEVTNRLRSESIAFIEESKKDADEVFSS
T1 sequence (P35228 whole entry): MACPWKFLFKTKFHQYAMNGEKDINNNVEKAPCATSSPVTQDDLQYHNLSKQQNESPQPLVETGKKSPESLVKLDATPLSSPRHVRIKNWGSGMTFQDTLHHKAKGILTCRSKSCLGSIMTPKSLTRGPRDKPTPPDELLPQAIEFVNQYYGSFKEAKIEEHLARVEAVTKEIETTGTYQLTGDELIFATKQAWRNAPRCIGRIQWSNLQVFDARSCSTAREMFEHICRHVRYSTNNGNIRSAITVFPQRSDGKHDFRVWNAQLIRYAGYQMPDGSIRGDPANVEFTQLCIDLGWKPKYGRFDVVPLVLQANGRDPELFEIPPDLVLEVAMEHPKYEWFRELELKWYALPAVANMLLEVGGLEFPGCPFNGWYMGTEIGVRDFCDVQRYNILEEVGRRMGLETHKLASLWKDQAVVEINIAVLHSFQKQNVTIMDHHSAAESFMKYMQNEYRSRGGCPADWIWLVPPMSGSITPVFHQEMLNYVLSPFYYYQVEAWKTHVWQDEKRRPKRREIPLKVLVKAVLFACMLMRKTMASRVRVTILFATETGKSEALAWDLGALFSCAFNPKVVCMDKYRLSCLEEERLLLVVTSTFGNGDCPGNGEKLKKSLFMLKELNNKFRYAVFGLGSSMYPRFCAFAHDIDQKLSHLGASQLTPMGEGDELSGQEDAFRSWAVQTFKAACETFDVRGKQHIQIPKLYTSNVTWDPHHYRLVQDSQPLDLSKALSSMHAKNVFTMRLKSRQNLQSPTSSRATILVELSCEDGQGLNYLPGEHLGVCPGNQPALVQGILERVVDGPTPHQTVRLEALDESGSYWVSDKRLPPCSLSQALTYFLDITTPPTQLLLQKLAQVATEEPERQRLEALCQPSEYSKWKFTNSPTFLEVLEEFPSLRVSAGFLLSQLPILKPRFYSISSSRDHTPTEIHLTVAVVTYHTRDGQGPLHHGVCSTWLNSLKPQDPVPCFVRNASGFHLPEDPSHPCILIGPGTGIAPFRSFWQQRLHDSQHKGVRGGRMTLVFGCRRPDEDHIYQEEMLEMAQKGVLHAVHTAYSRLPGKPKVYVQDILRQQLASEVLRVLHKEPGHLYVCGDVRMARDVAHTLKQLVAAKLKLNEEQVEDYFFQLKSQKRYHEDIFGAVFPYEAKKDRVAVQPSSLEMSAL

With `CNn1c(N)nc2ccccc21`, the IC50 result in experiment [1] was “Not Active”; in experiment [2], “Not Active”; in experiment [3], “Not Active”; in experiment [4], 5.8 µM.

As to `Nc1nc2ccccc2n1N`, the IC50 is 25 µM in experiment [5], “Not Active” in experiment [6], 31 µM in experiment [7] and 77 µM in experiment [4].

On to `O=[N+]([O-])c1cccc2cn[nH]c12` [7-NITROINDAZOLE], for which the IC50 in experiment [5] amounted to 24 µM; in experiment [7], 20 µM.

In the case of `N=C(N)NN` [PIMAGEDINE], the IC50 in experiment [5] is 54 µM; in experiment [6], “Not Active”; in experiment [7] it was 9 µM; in experiment [8], “Not Active”.
